Assay results from patent US8658649B2, “Kinase inhibitor” (Sanofi, priority 2006, dated 2014).

Assays:
[1] = system: Collagen-induced arthritis (CIA); experiment: Rat collagen induced arthritis, prophylactic dosing; format: in vivo; conditions: vs vehicle
Description: Immunization and Challenge: Female Lewis rats were immunized on day 0 and challenged on day 7 with cII from bovine nasal mixed with Freund's incomplete adjuvant at a final collagen concentration of 1.0 mg/ml. The animals were injected at the base of the tail with 400 μg of cII.
Prophylactic Dosing Regimen: The compound of Formula I (3.0, 10, and 30 mg/kg) was orally dosed (p.o.) twice daily (b.i.d.) starting on day 6 and continued through day 21.
Joint Pathology Ankle joint swelling was measured to the nearest 0.01 mm by using electronic digital calipers. Measurements were recorded 7 times throughout the study starting on day 6 and ending on day 21. Body weights were recorded on the same days. On day 21, hind paws were removed at the hairline just above the ankle and fixed in 10% neutral buffered formalin.
MicroCT analysis: Ankle joints were examined using a cone-beam μCT scanner. A scout view scan was obtained first for selection of the examination volume of the specimens, followed by positioning, measurement and computational reconstruction. In ankle joints, the ratio of bone surface to bone volume, describing the complexity of bone surface in a certain volume, was analyzed.
Statistical Analysis For joint swelling/inflammation, data were analyzed using Everstat v.5 software and a 2-way repeated measure ANOVA with Dunnett's post test. MicroCT data were analyzed by Everstat using a 1-way ANOVA and Newman-Keuls multiple comparison test. Data are presented as the mean±SEM and p values of <0.05 are considered significant.

[2] = target: T1, Syk (Homo sapiens, UniProt P43405); experiment: Syk substrate phosphorylation, Streptavidin FlashPlate; format: biochemical; conditions: 7.77 nM Flag-tagged Syk, PGT-Biotin substrate, 33P-ATP
T1 construct: Flag; made in house
Text: • Assay Name: Spleen Tyrosine (Y) Kinase • Short Name: Syk • Assay Format: Substrate Phosphorylation • Detection Format: Streptavidin FlashPlate • Modulation: Inhibition
Streptavidin FlashPlate Plus microplates from PerkinElmer Life Sciences™ are designed for in-plate radiometric assays. The interior of each well is permanently coated with a thin layer of polystyrene-based scintillant followed by covalent binding of Streptavidin. These plates are suitable for a wide variety of assay applications which utilize biotinylated capture molecules. Poly (Glu,Tyr) 4:1 (PGT) is a random copolymer that can act as a substrate for tyrosine-specific protein kinases. The assay measures the phosphorylation of PGT-Biotin substrate by Syk. The enzyme transfers the [γ^33P]-phosphate from [γ^33P]-ATP to the polymeric substrate. The assay was run in solution in a non-binding 384-well plate. After stopping the reaction using phosphoric acid, the reaction mixture was transferred to a 384-well Streptavidin Flashplate. The biotinylated substrate was captured onto the plate and other reagents including hot ATP were washed away. Each well was then counted for radioactivity.
The enzyme reaction was run in a 384-well non-binding plate. […] Radioactivity was counted on a Top Count™ scintillation counter. […]

IC50 [2]: 1.7 nM
SMILES: CCc1c(-c2ccc(C(C)(C)O)cc2)[nH]c2nccnc12 [compound of Formula I, 2-[4-(7-Ethyl-5H-pyrrolo[2,3-b]pyrazin-6-yl)-phenyl]-propan-2-ol]
ankle swelling/inflammation ([1]; 3.0 mg/kg p.o. b.i.d. day 6-21, on day 12 only): significantly reduced ankle swelling/inflammation | ankle swelling/inflammation ([1]; 10 mg/kg p.o. b.i.d. day 6-21, on days 12 through 19): significantly reduced ankle swelling/inflammation | ankle swelling/inflammation ([1]; 30 mg/kg p.o. b.i.d. day 6-21, from day 12 through day 21): significantly reduced ankle swelling/inflammation | bone erosion (ratio of bone surface to bone volume), MicroCT ([1]; 3, 10 or 30 mg/kg b.i.d.): significant reductions in bone erosion
